From article PMC7351026, “Serum Half-Lives for Short- and Long-Chain Perfluoroalkyl Acids after Ceasing Exposure from Drinking Water Contaminated by Firefighting Foam” (Environmental Health Perspectives, 2020)
“And” between values parts separate entries of the source, which are not always exact repeats. Equal entries are not always repeated. Marks after values point to notes of the source that are not given here.

Assays:
[1] = PFAS levels in serum samples of airport employees (LC/MS/MS); conditions: for Serum level in the first samples, median (range) / Relative composition of PFAS in serum, molar concentration basis / Relative composition of PFAS in serum, weight basis / Serum concentration, molar basis / Serum concentration, weight basis: all 26 airport employees; for Relative composition of PFAS in serum, molar concentration basis / Relative composition of PFAS in serum, weight basis: first serum samples; for Serum concentration, molar basis / Serum concentration, weight basis: median of first serum samples
Excerpt: All 26 employees at the airport were invited for a blood sampling between 11 and 14 September 2018 (i.e., within 11 to 14 d after the termination of contaminated drinking-water exposure). Information on age, home address, employment history, working tasks, and sick leave and vacation days in August and September were collected by questionnaire. In addition, data on the number of glasses of water consumed per day, local fish consumption, and history of blood donation and medication were collected. For female employees, questions about menstruation, pregnancy, and duration of breast-feeding were asked.
The PFAS analysis in serum from the first sampling was immediately performed and personal results were reported to the employees. […] These 17 employees submitted four rounds of blood and first morning urine samples in parallel, at 1-month intervals. In total, there were five rounds of serum sampling (started from September) and four rounds of urine sampling (from October). For modeling of elimination, all samples were reanalyzed in a single batch. We obtained 83 serum samples with a median count of 5 (range: 4–5) samples per employee, and 59 urine samples with median of 4 (range: 1–4) samples per employee. Only one employee provided a single urine sample. The study was approved by the Regional Ethical Review Board in Lund, Sweden. All employees provided written informed consent.
Venous whole blood samples were obtained and were centrifuged for 10 min at 1,500×g at room temperature to isolate the serum on site. The serum samples were collected in 6-mL BD Vacutainer® Plus plastic serum tubes without gel (BD). Urine samples were collected in 13-mL polypropylene screw cap tubes (Sarstedt). Serum and urine samples were frozen at −20°C after sampling and transported to Lund using cold chain logistics. Serum and urine samples were stored at −80°C and −20°C , respectively, before analysis.
The serum samples, QC samples, and chemical blanks were prepared in 96-well plates with 1.5-mL flat-bottom glass vials (Biotech solutions). Serum samples were thawed for 1–2 h and mixed on a vortex shaker for approximately 10 s two times. Once after all samples were thawed and a second time before pipetting the serum to the plate. Before pipetting, the tip was pre-wetted several times, drawing a volume into the tip and dispensing it back into the tube. Sample preparation procedures for serum samples consisted of 25μL serum mixed with 25μL water, 25μL methanol, 25μL isotopically labeled internal standards in 50% acetonitrile (see Table S1), and 100μL acetonitrile. Thereafter, samples were mixed vigorous by shaking for 30 min and centrifuged at 2,600×g for 10 min at room temperature. The supernatant ( 0.2mL ) was transferred to 96-well plates with 0.5-mL conical glass vials (MicroLiter Analytical Supplies) and again centrifuged at 3,000×g for 10 min before analysis. The QC samples and chemical blanks were prepared following the same procedure as the serum samples. The calibration standards were prepared in FBS the same way as the samples, except for the addition of diluted reference standards of all analyzed compounds in 25μL of the methanol solution.
Aliquots of 4μL of the sample were analyzed using LC/MS/MS. For the analysis, a C18 column ( 4μm , 2.1mm i.d.×50mm , Genesis Lightning) was used prior to the injector to filter the mobile phases. The analytical column was an Aquity BEH ( 1.7μm , 2.1mm i.d.×100mm Waters). The mobile phases (A and B) were A: 5 mM ammonium acetate in water:methanol (50:50); and B: methanol. The mobile phase was kept at 0% B for 2.5 min after injection. A gradient was then applied over 11 min to 90% B, where it was then kept for 1.5 min. The column was then conditioned at 0% B for 2 min.

Serum/water ratio = type: in vivo, human; conditions: median serum level of first samples (26 employees) divided by airport drinking-water level
Experimental: The ratio of serum and water concentration for each PFAS (serum/water ratio) was calculated based on median serum level in the first serum sample obtained from all 26 airport employees divided by the drinking-water concentration. This ratio is an indicator of PFAS accumulation in body.

[2] = 1st sampling (September 2018), count 17
[3] = 2nd sampling (October 2018), count 17
[4] = 3rd sampling (November, 2018), count 17
[5] = 4th sampling (December 2018), count 16
[6] = 5th sampling (January 2019), count 16
[7] = employees participated in first blood sampling and repeated blood and urine sampling, N=17
[8] = employees participated in first blood sampling only, N=9, 11-14 d after end of exposure

| Structure (SMILES) | Serum PFAS level, 25 percentile [1, 2] | Serum PFAS level, 75 percentile [1, 2] | Serum PFAS level, Max [1, 2] | Serum PFAS level, Median [1, 2] | Serum PFAS level, Min [1, 2] | Serum PFAS level, 25 percentile [1, 3] | Serum PFAS level, 75 percentile [1, 3] | Serum PFAS level, Max [1, 3] | Serum PFAS level, Median [1, 3] | Serum PFAS level, Min [1, 3] | Serum PFAS level, 25 percentile [1, 4] | Serum PFAS level, 75 percentile [1, 4] | Serum PFAS level, Max [1, 4] | Serum PFAS level, Median [1, 4] | Serum PFAS level, Min [1, 4] | Serum PFAS level, 25 percentile [1, 5] | Serum PFAS level, 75 percentile [1, 5] | Serum PFAS level, Max [1, 5] | Serum PFAS level, Median [1, 5] | Serum PFAS level, Min [1, 5] | other results |
| --- | --- | --- | --- | --- | --- | --- | --- | --- | --- | --- | --- | --- | --- | --- | --- | --- | --- | --- | --- | --- | --- |
| O=S(=O)(O)C(F)(F)C(F)(F)C(F)(F)C(F)(F)F [PFBS, perfluorobutane sulfonic acid] | 0.32 | 0.68 | 1.3 | 0.46 | 0.22 | 0.11 | 0.31 | 0.70 | 0.17 | < LOD | < LOD | 0.28 | 0.65 | 0.09 | < LOD | < LOD | 0.24 | 0.52 | 0.08 | < LOD | Serum PFAS level, 25 percentile [1, 6]: < LOD; Serum PFAS level, 75 percentile [1, 6]: 0.11; Serum PFAS level, Max [1, 6]: 0.30; Serum PFAS level, Median [1, 6]: 0.06; Serum PFAS level, Min [1, 6]: < LOD; Serum level in the first samples, median (range) [1]: 0.33 ( <LOD –1.3) ng/mL; PFAS in first serum sample, median (range) [1, 7]: 0.46 ng/mL and 0.46 (0.22–1.3) ng/mL; PFAS in first serum sample, median (range) [1, 8]: 0.10 ( <LOD –1.0)^d ng/mL; Initial serum PFAS level, max ([1]; females (N=7)): 1.3 ng/mL; Initial serum PFAS level, median ([1]; females (N=7)): 0.39 ng/mL; Initial serum PFAS level, min ([1]; females (N=7)): 0.06 ng/mL; Relative composition of PFAS in serum, molar concentration basis [1]: 0.4%; Relative composition of PFAS in serum, weight basis [1]: 0.3%; Initial serum PFAS level, Max ([1]; males (N=19)): 1.1 ng/mL; Initial serum PFAS level, Min ([1]; males (N=19)): < LOD; Initial serum PFAS level, median ([1]; males (N=19)): 0.32 ng/mL; Serum concentration, molar basis [1]: 0.0011; Serum concentration, weight basis [1]: 0.33; Serum/water ratio (Serum/water ratio): 1.65 |
| O=S(=O)(O)C(F)(F)C(F)(F)C(F)(F)C(F)(F)C(F)(F)C(F)(F)C(F)(F)F [PFHpS, perfluoroheptane sulfonic acid] | 0.96 | 2.5 | 6.2 | 1.6 | 0.49 | 0.95 | 2.1 | 6.1 | 1.5 | 0.45 | 0.94 | 1.9 | 6.3 | 1.4 | 0.47 | 0.93 | 2.1 | 5.9 | 1.5 | 0.35 | Serum PFAS level, 25 percentile [1, 6]: 1.1; Serum PFAS level, 75 percentile [1, 6]: 2.2; Serum PFAS level, Max [1, 6]: 6.2; Serum PFAS level, Median [1, 6]: 1.5; Serum PFAS level, Min [1, 6]: 0.45; Serum level in the first samples, median (range) [1]: 1.3 (0.28–6.2) ng/mL; PFAS in first serum sample, median (range) [1, 7]: 1.6 (0.49–6.2) ng/mL; PFAS in first serum sample, median (range) [1, 8]: 0.97 (0.28–1.9) ng/mL; Initial serum PFAS level, max ([1]; females (N=7)): 2.2 ng/mL; Initial serum PFAS level, median ([1]; females (N=7)): 1.1 ng/mL; Initial serum PFAS level, min ([1]; females (N=7)): 0.49 ng/mL; Relative composition of PFAS in serum, molar concentration basis [1]: 1.1%; Relative composition of PFAS in serum, weight basis [1]: 1.2%; Initial serum PFAS level, Max ([1]; males (N=19)): 6.2 ng/mL; Initial serum PFAS level, Min ([1]; males (N=19)): 0.28 ng/mL; Initial serum PFAS level, median ([1]; males (N=19)): 1.4 ng/mL; Serum concentration, molar basis [1]: 0.0029; Serum concentration, weight basis [1]: 1.3; Serum/water ratio (Serum/water ratio): 81.3 |
| O=C(O)C(F)(F)C(F)(F)C(F)(F)C(F)(F)C(F)(F)F [PFHxA, perfluorohexanoic acid] | 0.24 | 0.48 | 0.92 | 0.37 | 0.16 | 0.26 | 0.51 | 1.2 | 0.31 | 0.14 | 0.27 | 0.56 | 1.4 | 0.34 | 0.13 | 0.22 | 0.46 | 0.87 | 0.30 | 0.08 | Serum PFAS level, 25 percentile [1, 6]: 0.21; Serum PFAS level, 75 percentile [1, 6]: 0.52; Serum PFAS level, Max [1, 6]: 1.2; Serum PFAS level, Median [1, 6]: 0.33; Serum PFAS level, Min [1, 6]: 0.11; Serum level in the first samples, median (range) [1]: 0.38 (0.16–1.1) ng/mL; PFAS in first serum sample, median (range) [1, 7]: 0.37 (0.16–0.92) ng/mL; PFAS in first serum sample, median (range) [1, 8]: 0.38 (0.23–1.1) ng/mL; Initial serum PFAS level, max ([1]; females (N=7)): 0.54 ng/mL; Initial serum PFAS level, median ([1]; females (N=7)): 0.24 ng/mL; Initial serum PFAS level, min ([1]; females (N=7)): 0.19 ng/mL; Relative composition of PFAS in serum, molar concentration basis [1]: 0.4%; Relative composition of PFAS in serum, weight basis [1]: 0.3%; Initial serum PFAS level, Max ([1]; males (N=19)): 1.1 ng/mL; Initial serum PFAS level, Min ([1]; males (N=19)): 0.16 ng/mL; Initial serum PFAS level, median ([1]; males (N=19)): 0.42 ng/mL; Serum concentration, molar basis [1]: 0.0012; Serum concentration, weight basis [1]: 0.38; Serum/water ratio (Serum/water ratio): 1.15 |
